Reference: the NIST ThermoML archive (doi:10.1016/j.fluid.2017.06.019)

Details: Coaxial cylinder method

CCC [propane]
thermal conductivity [W/m/K]
Details	368.46 K	369.12 K
3948 kPa, Gas	–	0.04135
3960 kPa, Gas	–	0.0417
4020 kPa, Gas	–	0.04343
4040 kPa, Gas	–	0.04417
4115 kPa, Gas	–	0.0486
4120 kPa, Gas	–	0.04907
4125 kPa, Gas	–	0.04956
4130 kPa, Gas	–	0.05011
4135 kPa, Gas	–	0.05071
4140 kPa, Gas	–	0.05135
4145 kPa, Gas	–	0.05207
4150 kPa, Gas	–	0.0529
4154 kPa, Gas	–	0.05366
4156 kPa, Gas	–	0.05402
4158 kPa, Gas	–	0.05445
4160 kPa, Gas	–	0.05488
4162 kPa, Gas	–	0.0554
4164 kPa, Gas	–	0.05743
4166 kPa, Gas	–	0.06032
4166 kPa, Liquid	0.1166	–
4167 kPa, Liquid	0.1142	–
4168 kPa, Gas	–	0.0639
4168 kPa, Liquid	0.112	–
4169 kPa, Liquid	0.1098	–
4170 kPa, Gas	–	0.06861
4170 kPa, Liquid	0.1079	–
4171 kPa, Liquid	0.1059	–
4172 kPa, Gas	–	0.07431
4172 kPa, Liquid	0.1041	–
4173 kPa, Liquid	0.1023	–
4174 kPa, Liquid	0.1007	–
4175 kPa, Liquid	0.09915	–
4176 kPa, Liquid	0.09767	–
4177 kPa, Liquid	0.09622	–
4178 kPa, Liquid	0.09487	–
4179 kPa, Liquid	0.09359	–
4180 kPa, Gas	–	0.113
4180 kPa, Liquid	0.0923	–
4181 kPa, Liquid	0.09113	–
4182 kPa, Gas	–	0.127
4182 kPa, Liquid	0.09007	–
4183 kPa, Liquid	0.08899	–
4184 kPa, Gas	–	0.1426
4184 kPa, Liquid	0.08793	–
4185 kPa, Liquid	0.08689	–
4186 kPa, Gas	–	0.1588
4186 kPa, Liquid	0.08599	–
4187 kPa, Liquid	0.08507	–
4188 kPa, Gas	–	0.179
4188 kPa, Liquid	0.08424	–
4189 kPa, Liquid	0.08337	–
4190 kPa, Gas	–	0.1956
4190 kPa, Liquid	0.08257	–
4191 kPa, Liquid	0.08179	–
4192 kPa, Gas	–	0.2155
4192 kPa, Liquid	0.08112	–
4193 kPa, Liquid	0.08042	–
4194 kPa, Liquid	0.07971	0.2155
4195 kPa, Liquid	0.0791	–
4196 kPa, Liquid	0.0785	0.1917
4197 kPa, Liquid	0.07791	–
4198 kPa, Liquid	0.07733	0.1741
4199 kPa, Liquid	0.07676	–
4200 kPa, Liquid	0.07619	0.1606
4201 kPa, Liquid	0.07577	–
4202 kPa, Liquid	0.07536	0.1497
4203 kPa, Liquid	0.07481	–
4204 kPa, Liquid	0.07441	0.1407
4205 kPa, Liquid	0.07401	–
4206 kPa, Liquid	0.07348	0.1335
4207 kPa, Liquid	0.07318	–
4208 kPa, Liquid	0.07282	0.1259
4209 kPa, Liquid	0.07244	–
4210 kPa, Liquid	0.07206	0.1185
4211 kPa, Liquid	0.07181	–
4212 kPa, Liquid	0.07151	0.1121
4213 kPa, Liquid	0.07116	0.1093
4214 kPa, Liquid	0.07087	–
4215 kPa, Liquid	0.07063	0.1035
4216 kPa, Liquid	0.07039	–
4217 kPa, Liquid	0.0701	–
4218 kPa, Liquid	0.06986	–
4219 kPa, Liquid	0.06962	–
4220 kPa, Liquid	0.06939	–
4221 kPa, Liquid	0.0692	–
4222 kPa, Liquid	0.06897	–
4223 kPa, Liquid	0.06874	–
4224 kPa, Liquid	0.0686	–
4225 kPa, Liquid	0.0684	–
4226 kPa, Liquid	0.06824	–
4227 kPa, Liquid	0.06804	–
4228 kPa, Liquid	0.0679	0.08399
4229 kPa, Liquid	0.06777	–
4230 kPa, Liquid	0.06761	0.08176
4231 kPa, Liquid	0.06749	–
4232 kPa, Liquid	0.06733	0.07987
4233 kPa, Liquid	0.06722	–
4234 kPa, Liquid	0.06709	0.07806
4235 kPa, Liquid	0.06698	–
4236 kPa, Liquid	0.06684	0.07633
4237 kPa, Liquid	0.06677	–
4238 kPa, Liquid	0.06652	0.07491
4239 kPa, Liquid	0.06652	–
4240 kPa, Liquid	0.06647	0.07344
4241 kPa, Liquid	0.06643	–
4242 kPa, Liquid	0.06641	–
4244 kPa, Liquid	0.06637	–
4246 kPa, Liquid	0.0663	–
4248 kPa, Liquid	0.06624	–
4250 kPa, Liquid	0.06619	–
4252 kPa, Liquid	0.06614	–
4254 kPa, Liquid	0.06611	–
4256 kPa, Liquid	0.06607	–
4258 kPa, Liquid	0.066	–
4260 kPa, Liquid	0.06598	0.06913
4262 kPa, Liquid	0.06591	–
4264 kPa, Liquid	0.06587	–
4266 kPa, Liquid	0.06583	–
4268 kPa, Liquid	0.06578	–
4270 kPa, Liquid	0.06574	–
4272 kPa, Liquid	0.06572	–
4274 kPa, Liquid	0.06568	–
4276 kPa, Liquid	0.06564	–
4278 kPa, Liquid	0.06564	–
4280 kPa, Liquid	0.06559	0.06803
4282 kPa, Liquid	0.06555	–
4284 kPa, Liquid	0.0655	–
4286 kPa, Liquid	0.0655	–
4288 kPa, Liquid	0.06543	–
4290 kPa, Liquid	0.06539	–
4292 kPa, Liquid	0.06535	–
4294 kPa, Liquid	0.06533	–
4296 kPa, Liquid	0.06529	–
4298 kPa, Liquid	0.06529	–
4300 kPa, Liquid	0.06527	0.06726
4302 kPa, Liquid	0.06525	–
4304 kPa, Liquid	0.06521	–
4306 kPa, Liquid	0.06516	–
4308 kPa, Liquid	0.06514	–
4310 kPa, Liquid	0.06514	–
4312 kPa, Liquid	0.0651	–
4314 kPa, Liquid	0.06505	–
4316 kPa, Liquid	0.06503	–
4318 kPa, Liquid	0.06501	–
4320 kPa, Liquid	0.06499	0.06665
4322 kPa, Liquid	0.06499	–
4324 kPa, Liquid	0.06497	–
4326 kPa, Liquid	0.06493	–
4328 kPa, Liquid	0.06493	–
4330 kPa, Liquid	0.06489	–
4332 kPa, Liquid	0.06487	–
4334 kPa, Liquid	0.06484	–
4336 kPa, Liquid	0.06484	–
4338 kPa, Liquid	0.06482	–
4340 kPa, Liquid	0.06482	0.06616
4345 kPa, Liquid	0.06476	–
4350 kPa, Liquid	0.06472	–
4355 kPa, Liquid	0.06468	–
4360 kPa, Liquid	0.06461	–
4365 kPa, Liquid	0.06458	–
4368 kPa, Liquid	0.06458	–
4375 kPa, Liquid	0.06454	–
4380 kPa, Liquid	0.0645	0.06546
4385 kPa, Liquid	0.06446	–
4390 kPa, Liquid	0.06443	–
4400 kPa, Liquid	0.06439	0.06519
4450 kPa, Liquid	0.06421	–
4500 kPa, Liquid	0.06413	–
4550 kPa, Liquid	0.06411	–
4600 kPa, Liquid	0.06411	–
4650 kPa, Liquid	0.06421	–
4700 kPa, Liquid	0.06427	–
4750 kPa, Liquid	0.06439	–
4800 kPa, Liquid	0.06451	–
4900 kPa, Liquid	0.06477	–
4960 kPa, Liquid	0.06496	–
4965 kPa, Liquid	0.065	–
4967 kPa, Liquid	0.065	–
5000 kPa, Liquid	0.06509	–
5100 kPa, Liquid	0.06542	–
5200 kPa, Liquid	0.06573	–
5300 kPa, Liquid	0.06605	–
5400 kPa, Liquid	0.06646	–
5500 kPa, Liquid	0.06674	–
5600 kPa, Liquid	0.06707	–
5700 kPa, Liquid	0.06732	–
5800 kPa, Liquid	0.06767	–
5900 kPa, Liquid	0.06794	–
6010 kPa, Liquid	0.06831	–
6020 kPa, Liquid	0.06831	–
6200 kPa, Liquid	0.06884	–
6210 kPa, Liquid	0.06886	–
8500 kPa, Liquid	–	0.0737
9020 kPa, Liquid	–	0.07453
10028 kPa, Liquid	–	0.07577
14772 kPa, Liquid	–	0.08097
